Measurements from article PMC5218480 (PLoS ONE, 2017).

System: MV-4-11 cells
Assay: Gene expression microarray analysis (Affymetrix PrimeView) and GSEA
Format: cell-based, human
Design: RFU PODN (11730768_x_at) / Fold change /veh PODN (11730768_x_at) / RFU LINC00158 (11744669_a_at) / Fold change /veh LINC00158 (11744669_a_at) / RFU DUSP10 (11751237_a_at) / Fold change /veh DUSP10 (11751237_a_at) / RFU ID3 (11757404_x_at) / Fold change /veh ID3 (11757404_x_at) / RFU PLEKHG5 (11737974_s_at) / Fold change /veh PLEKHG5 (11737974_s_at) / RFU LRRC4B (11730491_at) / Fold change /veh LRRC4B (11730491_at) / RFU GIMAP4 (11747438_a_at) / Fold change /veh GIMAP4 (11747438_a_at) / RFU KRT8 (11758183_x_at) / Fold change /veh KRT8 (11758183_x_at) / RFU CNN1 (11734310_a_at) / Fold change /veh CNN1 (11734310_a_at) / RFU VPS37D (11726825_at) / Fold change /veh VPS37D (11726825_at) / RFU C10orf10 (11716522_x_at) / Fold change /veh C10orf10 (11716522_x_at) / RFU KIR2DL2 /// KIR2DL4 /// KIR2DL5A /// KIR2DL5B /// KIR2DS1 /// KIR2DS2 /// KIR2DS3 /// KIR2DS4 /// KIR3DL3 /// KIR3DL3 /// KIR3DS1 (11738374_at) / Fold change /veh KIR2DL2 /// KIR2DL4 /// KIR2DL5A /// KIR2DL5B /// KIR2DS1 /// KIR2DS2 /// KIR2DS3 /// KIR2DS4 /// KIR3DL3 /// KIR3DL3 /// KIR3DS1 (11738374_at) / RFU C1QL1 (11718748_at) / Fold change /veh C1QL1 (11718748_at) / RFU TMPRSS4 (11747572_a_at) / Fold change /veh TMPRSS4 (11747572_a_at) / RFU HAMP (11756126_x_at) / Fold change /veh HAMP (11756126_x_at) / RFU RNFT2 (11725882_a_at) / Fold change /veh RNFT2 (11725882_a_at) / RFU NR4A2 (11747474_a_at) / Fold change /veh NR4A2 (11747474_a_at) / RFU ABCC12 (11746883_a_at) / Fold change /veh ABCC12 (11746883_a_at) / RFU TMEM136 (11760407_x_at) / Fold change /veh TMEM136 (11760407_x_at) / RFU CLDN22 /// WWC2 (11732394_at) / Fold change /veh CLDN22 /// WWC2 (11732394_at) / RFU HLA-DPB1 (11760878_x_at) / Fold change /veh HLA-DPB1 (11760878_x_at) / RFU SPINT1 (11716480_a_at) / Fold change /veh SPINT1 (11716480_a_at) / RFU GAP43 (11754022_s_at) / Fold change /veh GAP43 (11754022_s_at) / RFU A4GNT (11735810_at) / Fold change /veh A4GNT (11735810_at) / RFU PRB3 (11715151_x_at) / Fold change /veh PRB3 (11715151_x_at) / RFU TUBB4B (11761932_at) / Fold change /veh TUBB4B (11761932_at) / RFU CAPN14 (11732068_a_at) / Fold change /veh CAPN14 (11732068_a_at) / RFU TMCC2 (11721928_a_at) / Fold change /veh TMCC2 (11721928_a_at) / RFU IRGQ (11745062_a_at) / Fold change /veh IRGQ (11745062_a_at) / RFU FAM174B (11720279_a_at) / Fold change /veh FAM174B (11720279_a_at) / RFU TMPRSS4 (11748680_a_at) / Fold change /veh TMPRSS4 (11748680_a_at) / RFU FAM212B (11763350_a_at) / Fold change /veh FAM212B (11763350_a_at) / RFU PLEKHG5 (11743358_a_at) / Fold change /veh PLEKHG5 (11743358_a_at) / RFU ZSCAN30 (11745921_a_at) / Fold change /veh ZSCAN30 (11745921_a_at) / RFU CMKLR1 (11741424_a_at) / Fold change /veh CMKLR1 (11741424_a_at) / RFU LOC101060620 /// MAPK8IP1 (11723275_at) / Fold change /veh LOC101060620 /// MAPK8IP1 (11723275_at) / RFU SPTSSB (11747773_x_at) / Fold change /veh SPTSSB (11747773_x_at) / RFU PRSS12 (11739890_at) / Fold change /veh PRSS12 (11739890_at) / RFU BIN1 (11741810_x_at) / Fold change /veh BIN1 (11741810_x_at) / RFU WNT11 (11732464_a_at) / Fold change /veh WNT11 (11732464_a_at) / RFU C10orf10 (11716521_a_at) / Fold change /veh C10orf10 (11716521_a_at) / RFU C5orf56 (11738089_at) / Fold change /veh C5orf56 (11738089_at) / RFU CYB561 (11721691_x_at) / Fold change /veh CYB561 (11721691_x_at) / RFU ANKRD19P (11752326_a_at) / Fold change /veh ANKRD19P (11752326_a_at) / RFU OR2T12 /// OR2T33 /// OR2T8 (11738714_s_at) / Fold change /veh OR2T12 /// OR2T33 /// OR2T8 (11738714_s_at) / RFU VCAN (11748164_a_at) / Fold change /veh VCAN (11748164_a_at) / RFU JSRP1 (11732532_at) / Fold change /veh JSRP1 (11732532_at) / RFU KRTAP10-11 (11738290_x_at) / Fold change /veh KRTAP10-11 (11738290_x_at) / RFU MYO3A (11730013_a_at) / Fold change /veh MYO3A (11730013_a_at) / RFU EBF3 (11725865_a_at) / Fold change /veh EBF3 (11725865_a_at) / RFU CAMK2N1 (11719241_x_at) / Fold change /veh CAMK2N1 (11719241_x_at) / RFU C5orf56 (11738088_a_at) / Fold change /veh C5orf56 (11738088_a_at) / RFU OLFML3 (11715873_a_at) / Fold change /veh OLFML3 (11715873_a_at) / RFU LOC100653217 /// NTM (11731650_a_at) / Fold change /veh LOC100653217 /// NTM (11731650_a_at) / RFU MAPK11 (11762145_a_at) / Fold change /veh MAPK11 (11762145_a_at) / RFU FIZ1 (11724087_x_at) / Fold change /veh FIZ1 (11724087_x_at) / RFU OASL (11726364_x_at) / Fold change /veh OASL (11726364_x_at) / RFU SOX15 (11748057_x_at) / Fold change /veh SOX15 (11748057_x_at) / RFU CD79A (11719716_a_at) / Fold change /veh CD79A (11719716_a_at) / RFU HIST1H1D (11736915_at) / Fold change /veh HIST1H1D (11736915_at) / RFU CASKIN2 (11723855_a_at) / Fold change /veh CASKIN2 (11723855_a_at) / RFU LOC730098 (11760151_x_at) / Fold change /veh LOC730098 (11760151_x_at) / RFU OR4N2 (11742367_at) / Fold change /veh OR4N2 (11742367_at) / RFU PRRT2 (11749266_a_at) / Fold change /veh PRRT2 (11749266_a_at) / RFU SNX32 (11753110_a_at) / Fold change /veh SNX32 (11753110_a_at) / RFU CDHR5 (11726645_a_at) / Fold change /veh CDHR5 (11726645_a_at) / RFU RCAN1 (11760418_a_at) / Fold change /veh RCAN1 (11760418_a_at) / RFU FAM167A (11723789_a_at) / Fold change /veh FAM167A (11723789_a_at) / RFU FAM26E (11764081_at) / Fold change /veh FAM26E (11764081_at) / RFU ISYNA1 (11749810_s_at) / Fold change /veh ISYNA1 (11749810_s_at) / RFU ACY1 (11761880_at) / Fold change /veh ACY1 (11761880_at) / RFU 11764098_at / Fold change /veh 11764098_at / RFU SAMD14 (11745864_x_at) / Fold change /veh SAMD14 (11745864_x_at) / RFU NPB (11741838_a_at) / Fold change /veh NPB (11741838_a_at) / RFU TMPRSS6 (11731388_a_at) / Fold change /veh TMPRSS6 (11731388_a_at) / RFU KRTAP10-2 (11738614_at) / Fold change /veh KRTAP10-2 (11738614_at) / RFU ARHGAP8 /// PRR5-ARHGAP8 (11727945_x_at) / Fold change /veh ARHGAP8 /// PRR5-ARHGAP8 (11727945_x_at) / RFU KRTAP5-7 /// NADSYN1 (11734609_at) / Fold change /veh KRTAP5-7 /// NADSYN1 (11734609_at) / RFU RASL12 (11751679_a_at) / Fold change /veh RASL12 (11751679_a_at) / RFU CDKN2B (11736163_a_at) / Fold change /veh CDKN2B (11736163_a_at) / RFU PRF1 (11729649_at) / Fold change /veh PRF1 (11729649_at) / RFU, ZNF638 /// ZNF638-IT1 / Fold change vs veh, ZNF638 /// ZNF638-IT1 / RFU, PANK3 / Fold change vs veh, PANK3 / RFU, SH3YL1 / Fold change vs veh, SH3YL1 / RFU, ZEB2 / Fold change vs veh, ZEB2 / RFU, NRIP1 / Fold change vs veh, NRIP1 / RFU, PTTG1IP / Fold change vs veh, PTTG1IP / RFU, CAPN2 / Fold change vs veh, CAPN2 / RFU, MED14 / Fold change vs veh, MED14 / RFU, SNORA58 / Fold change vs veh, SNORA58 / RFU, C1orf63 / Fold change vs veh, C1orf63 / RFU, LRRFIP1 / Fold change vs veh, LRRFIP1 / RFU, NDUFAF7 / Fold change vs veh, NDUFAF7 / RFU, SLC12A2 / Fold change vs veh, SLC12A2 / RFU, IBTK / Fold change vs veh, IBTK / RFU, ESF1 / Fold change vs veh, ESF1 / Fold change vs veh, TMEM50B / RFU, TAOK1 / Fold change vs veh, TAOK1 / RFU, ACBD3 / Fold change vs veh, ACBD3 / RFU, TMA16 / Fold change vs veh, TMA16 / RFU, RWDD3 / Fold change vs veh, RWDD3 / RFU, BCAT1 / Fold change vs veh, BCAT1 / RFU, EDEM3 / Fold change vs veh, EDEM3 / RFU, TMEM33 / Fold change vs veh, TMEM33 / RFU, WDR75 / Fold change vs veh, WDR75 / RFU, AHCTF1 / Fold change vs veh, AHCTF1 / RFU, TFRC / Fold change vs veh, TFRC / RFU, ZDHHC17 / Fold change vs veh, ZDHHC17 / RFU, NOM1 / Fold change vs veh, NOM1 / RFU, ARL8B / Fold change vs veh, ARL8B / RFU, ZBTB11 / Fold change vs veh, ZBTB11 / RFU, TAMM41 / Fold change vs veh, TAMM41 / RFU, KIAA1704 /// LOC100996395 / Fold change vs veh, KIAA1704 /// LOC100996395 / RFU, ING1 / Fold change vs veh, ING1 / RFU, TRMT61B / Fold change vs veh, TRMT61B / RFU, FUBP3 / Fold change vs veh, FUBP3 / RFU, TP53 / Fold change vs veh, TP53 / RFU, TNKS2 / Fold change vs veh, TNKS2 / RFU, ZFP14 / Fold change vs veh, ZFP14 / RFU, ACTR2 / Fold change vs veh, ACTR2 / RFU, PPP3R1 / Fold change vs veh, PPP3R1 / RFU, PIK3R1 / Fold change vs veh, PIK3R1 / RFU, HNRNPA1 / Fold change vs veh, HNRNPA1 / RFU, RNF170 / Fold change vs veh, RNF170 / RFU, ZNF28 / Fold change vs veh, ZNF28 / RFU, RNGTT / Fold change vs veh, RNGTT / RFU, OGT / Fold change vs veh, OGT / RFU, BRD1 / Fold change vs veh, BRD1 / RFU, MARS / Fold change vs veh, MARS / RFU, ZNF655 / Fold change vs veh, ZNF655 / RFU, FAHD1 / Fold change vs veh, FAHD1 / RFU, BDP1 / Fold change vs veh, BDP1 / RFU, LRRCC1 / Fold change vs veh, LRRCC1 / RFU, ARID1A / Fold change vs veh, ARID1A / RFU, ZNF146 / Fold change vs veh, ZNF146 / RFU, ZNF330 / Fold change vs veh, ZNF330 / RFU, GPN3 / Fold change vs veh, GPN3 / RFU, C9orf123 / Fold change vs veh, C9orf123 / RFU, N4BP2L2 / Fold change vs veh, N4BP2L2 / RFU, ARFIP1 / Fold change vs veh, ARFIP1 / RFU, FAM179B / Fold change vs veh, FAM179B / RFU, BCL10 / Fold change vs veh, BCL10 / RFU, UHRF1BP1L / Fold change vs veh, UHRF1BP1L / RFU, BET1 / Fold change vs veh, BET1 / RFU, CNOT2 / Fold change vs veh, CNOT2 / RFU, ZNF268 / Fold change vs veh, ZNF268 / Fold change vs veh, ZNF507 / RFU, DGCR2 / Fold change vs veh, DGCR2 / RFU, WDSUB1 / Fold change vs veh, WDSUB1 / Fold change vs veh, HSP90B1 /// MIR3652 / RFU, ADSS / Fold change vs veh, ADSS / RFU, GK / Fold change vs veh, GK / RFU, ZNF148 / Fold change vs veh, ZNF148 / RFU, TAF9 / Fold change vs veh, TAF9 / RFU, SLC1A5 / Fold change vs veh, SLC1A5 / RFU, SLMO2 / Fold change vs veh, SLMO2 / RFU, ABCC4 / Fold change vs veh, ABCC4 / RFU, LOC101060439 /// RAP1B / Fold change vs veh, LOC101060439 /// RAP1B / RFU, RFX7 / Fold change vs veh, RFX7 / RFU, GTPBP10 / Fold change vs veh, GTPBP10 / RFU, CNEP1R1 / Fold change vs veh, CNEP1R1 / RFU, BIVM-ERCC5 /// ERCC5 / Fold change vs veh, BIVM-ERCC5 /// ERCC5 / RFU, ILF3 / Fold change vs veh, ILF3 / RFU 11762660_at / Fold change /veh 11762660_at / RFU VCAN (11757783_s_at) / Fold change /veh VCAN (11757783_s_at) / RFU DDX43 (11728927_at) / Fold change /veh DDX43 (11728927_at) / RFU KRT8 (11758188_x_at) / Fold change /veh KRT8 (11758188_x_at) / RFU NKD1 (11759106_at) / Fold change /veh NKD1 (11759106_at) / RFU SRD5A1 (11742802_a_at) / Fold change /veh SRD5A1 (11742802_a_at) / RFU TPSAB1 /// TPSB2 (11721975_s_at) / Fold change /veh TPSAB1 /// TPSB2 (11721975_s_at) / RFU GSTM3 (11746129_a_at) / Fold change /veh GSTM3 (11746129_a_at) / RFU IL23R (11737362_x_at) / Fold change /veh IL23R (11737362_x_at) / RFU TMEM51 (11727254_a_at) / Fold change /veh TMEM51 (11727254_a_at) / RFU PIWIL2 (11732686_x_at) / Fold change /veh PIWIL2 (11732686_x_at) / RFU ORM1 (11744905_x_at) / Fold change /veh ORM1 (11744905_x_at) / RFU CCDC152 (11743942_at) / Fold change /veh CCDC152 (11743942_at) / RFU ECM1 (11717891_a_at) / Fold change /veh ECM1 (11717891_a_at) / RFU IL23R (11748794_a_at) / Fold change /veh IL23R (11748794_a_at) / RFU TNFAIP8L3 (11732012_x_at) / Fold change /veh TNFAIP8L3 (11732012_x_at) / RFU MBOAT4 (11741988_at) / Fold change /veh MBOAT4 (11741988_at) / RFU 11764193_at / Fold change /veh 11764193_at / RFU TMEM53 (11763286_at) / Fold change /veh TMEM53 (11763286_at) / RFU MAGEB2 (11727129_at) / Fold change /veh MAGEB2 (11727129_at) / RFU TMEM200A (11744735_a_at) / Fold change /veh TMEM200A (11744735_a_at) / RFU CCDC152 (11751479_a_at) / Fold change /veh CCDC152 (11751479_a_at) / RFU FAM211A (11726209_a_at) / Fold change /veh FAM211A (11726209_a_at) / RFU RGS16 (11746705_a_at) / Fold change /veh RGS16 (11746705_a_at) / RFU VCAN (11755009_s_at) / Fold change /veh VCAN (11755009_s_at) / RFU RHOB (11743442_s_at) / Fold change /veh RHOB (11743442_s_at) / RFU RGS16 (11720943_a_at) / Fold change /veh RGS16 (11720943_a_at) / RFU RGS16 (11720944_at) / Fold change /veh RGS16 (11720944_at) / RFU, VPS4B / Fold change vs veh, VPS4B / RFU, CREB1 / Fold change vs veh, CREB1 / RFU, DNAJC13 / Fold change vs veh, DNAJC13 / RFU, GNAQ / Fold change vs veh, GNAQ / RFU, CDK5R1 / Fold change vs veh, CDK5R1 / RFU, ZRANB3 / Fold change vs veh, ZRANB3 / RFU, CUL4A / Fold change vs veh, CUL4A / RFU, CCNY / Fold change vs veh, CCNY / RFU, UFL1 / Fold change vs veh, UFL1 / RFU, COG3 / Fold change vs veh, COG3 / RFU, DIAPH2 / Fold change vs veh, DIAPH2 / RFU, SKA2 / Fold change vs veh, SKA2 / RFU, AFF3 / Fold change vs veh, AFF3 / RFU, LMF1 / Fold change vs veh, LMF1 / RFU, IPO11 / Fold change vs veh, IPO11 / RFU, DFFB / Fold change vs veh, DFFB / RFU, FOXP1 / Fold change vs veh, FOXP1 / RFU, CARD8 / Fold change vs veh, CARD8 / RFU, STRN3 / Fold change vs veh, STRN3 / RFU, ADK / Fold change vs veh, ADK / RFU, RASSF2 / Fold change vs veh, RASSF2 / RFU, WIPF1 / Fold change vs veh, WIPF1 / RFU, LARP1B / Fold change vs veh, LARP1B / RFU, RASA1 / Fold change vs veh, RASA1 / RFU, RB1 / Fold change vs veh, RB1 / RFU, PPFIA1 / Fold change vs veh, PPFIA1 / RFU, MAT2A / Fold change vs veh, MAT2A / RFU, CCT5 / Fold change vs veh, CCT5 / RFU, WDR92 / Fold change vs veh, WDR92 / RFU, CUX1 / Fold change vs veh, CUX1 / RFU, TTC7A / Fold change vs veh, TTC7A / RFU, TMEM135 / Fold change vs veh, TMEM135 / RFU, DEPTOR / Fold change vs veh, DEPTOR / RFU, CPM / Fold change vs veh, CPM / RFU, DNAJB6 / Fold change vs veh, DNAJB6 / RFU, CACNA2D3 / Fold change vs veh, CACNA2D3 / RFU, DTX4 / Fold change vs veh, DTX4 / RFU, TFCP2 / Fold change vs veh, TFCP2 / RFU, GMCL1 /// GMCL1P1 / Fold change vs veh, GMCL1 /// GMCL1P1 / RFU, AEBP2 / Fold change vs veh, AEBP2 / RFU, SNHG1 /// SNORD22 /// SNORD25 /// SNORD26 /// SNORD27 /// SNORD28 /// SNORD29 /// SNORD31 / Fold change vs veh, SNHG1 /// SNORD22 /// SNORD25 /// SNORD26 /// SNORD27 /// SNORD28 /// SNORD29 /// SNORD31 / Fold change (Aza/veh), C12orf56 (ProbeSet 11735607_a_at) / Fold change (ACY-1035/veh), C12orf56 (ProbeSet 11735607_a_at) / Fold change (Aza/veh), FGFR1OP (ProbeSet 11751329_s_at) / Fold change (ACY-1035/veh), FGFR1OP (ProbeSet 11751329_s_at) / Fold change (Aza/veh), VPS36 (ProbeSet 11739960_a_at) / Fold change (ACY-1035/veh), VPS36 (ProbeSet 11739960_a_at) / RFU SYPL1 (11715823_x_at) / Fold change /veh SYPL1 (11715823_x_at) / RFU IGFBP7 (11715501_s_at) / Fold change /veh IGFBP7 (11715501_s_at) / RFU REEP3 (11722064_at) / Fold change /veh REEP3 (11722064_at) / RFU IGLL1 (11728026_x_at) / Fold change /veh IGLL1 (11728026_x_at): dose or concentration left out as unconfirmed
Settings: MV-4-11 cells, 48 hours

Nc1ccc(-c2cccs2)cc1NC(=O)c1ccc2c(c1)cc(C1CC1)n2CCN1CCOCC1 [ACY-1035]
Fold change /veh MAPK11 (11762145_a_at): 0.89
